Source: the NIST ThermoML archive (doi:10.1016/j.fluid.2014.12.033)
± gives the expanded uncertainty stated by the source.

Details: Liquid

| SMILES | Normal boiling temperature (DSC) [°C] | Normal boiling temperature (Distillation) [°C] |
| --- | --- | --- |
| CCCCC(CC)COP(=O)(O)OCC(CC)CCCC (centres undefined) [bis(2-ethylhexyl) hydrogen phosphate] | 260 ± 16 | – |
| C1CCCCC1 [cyclohexane] | – | 82 ± 1 |
| CCCCCCCCO [octan-1-ol] | – | 193 ± 1 |
| ClC(Cl)Cl [trichloromethane] | – | 62 ± 1 |
